From US5310726A, “Lipopeptide compounds” (Merck & Co., Inc., priority 1990, dated 1994)

Assays:
Candida parapsilosis = assay: Microdilution broth assay, minimum fungicidal concentration; type: cell-based
Excerpt: (§1) The usefulness of the compounds as antifungal agents particularly, for the treatment of mycotic infections may be illustrated with minimum fungicidal concentration (MFC) results with Compound IA in tests against Candida albicans, Candida tropicalis and Candida parapsilosis.
(§2) The activity may be seen in a microdilution broth assay employing Yeast Nitrogen Base (Difco) with 10% dextrose (YNBD) as the medium. In carrying out the assay, Compound Ia was solubilized in 10 percent dimethyl sulfoxide (DMSO) and diluted to 2560 μg/ml. The compounds were then diluted to 256 μg/ml in YNBD. 0.15 ml of the suspension was dispensed to the top row of a 96-well plate (each well containing 0.15 ml of YNDB) resulting in a drug concentration of 128 μg/ml. Two-fold dilutions were then made from the top row to obtain final drug concentrations ranging from 128 to 0.06 μg/ml.
(§3) The yeast cultures, maintained on Sabouraud dextrose agar were transferred to YM broth (Difco) and incubated overnight at 35° C. with shaking (250 rpm). After incubation, each culture was diluted in sterile water to yield a final concentration of 1-5×10^6 colony forming units (CFU)/ml.
(§4) 96-well microplates were inoculated using a MIC-2000 (Dynatech) which delivers […] per well yielding a final inoculum per well of 1.5-7.5×10^3 cells. The microplates were incubated at 35° C. for 24 hours. The minimum inhibitory concentrations (MICS) were recorded as the lowest concentrations of drug showing no visible growth.
(§5) After recording the MIC, the plates were shaken to resuspend the cells. Thereafter, […] samples from the wells in the 96-well microplate were transferred to a single well tray containing Sabouraud dextrose agar. The inoculated trays were incubated 24 hours at 28° C. and then read. The MFC is defined as the lowest concentration of drug showing no growth or less than 4 colonies per spot.

Candida albicans = assay: as above; type: cell-based
Excerpt: as §1, §2, §3, §4, §5

[1] = Stability in aqueous media; type: physicochemical; details: physiological pH range
Candida tropicalis = assay: Microdilution broth assay, minimum fungicidal concentration; type: cell-based; details: Candida tropicalis MY 1012
Protocol: The usefulness of the compounds as antifungal agents particularly, for the treatment of mycotic infections may be illustrated with minimum fungicidal concentration (MFC) results with Compound IA in tests against Candida albicans, Candida tropicalis and Candida parapsilosis. The activity may be seen in a microdilution broth assay employing Yeast Nitrogen Base (Difco) with 10% dextrose (YNBD) as the medium. […] The compounds were then diluted to 256 μg/ml in YNBD. 0.15 ml of the suspension was dispensed to the top row of a 96-well plate (each well containing 0.15 ml of YNDB) resulting in a drug concentration of 128 μg/ml. Two-fold dilutions were then made from the top row to obtain final drug concentrations ranging from 128 to 0.06 μg/ml. The yeast cultures, maintained on Sabouraud dextrose agar were transferred to YM broth (Difco) and incubated overnight at 35° C. with shaking (250 rpm). After incubation, each culture was diluted in sterile water to yield a final concentration of 1-5×10^6 colony forming units (CFU)/ml. 96-well microplates were inoculated using a MIC-2000 (Dynatech) which delivers […] per well yielding a final inoculum per well of 1.5-7.5×10^3 cells. […] The minimum inhibitory concentrations (MICS) were recorded as the lowest concentrations of drug showing no visible growth. […] The inoculated trays were incubated 24 hours at 28° C. and then read. […]

**Q.** With “1-[4-hydroxy-N^2 -(10,12-dimethyl-1-oxo-tetradecyl)ornithine]-4-[3-hydroxy-homotyrosine]-5- [3-hydroxy-glutamine]echinocandin B [Compound Ia]” as the substance, how does the “Minimum Fungicidal Concentration” value (Candida parapsilosis; Candida parapsilosis MY 1008) read?
**A.** Its value is 8 µg/mL.

**Q.** What about the “Minimum Fungicidal Concentration” value (Candida parapsilosis; Candida parapsilosis MY 1010) of the same substance?
**A.** Its value is 4 µg/mL.

**Q.** What about the “Minimum Fungicidal Concentration” value (Candida albicans; Candida albicans MY 1028) of the same substance?
**A.** The value was 0.5 µg/mL.

**Q.** What about the “Minimum Fungicidal Concentration” value (Candida albicans; Candida albicans MY 1055) of the same substance?
**A.** Its value is 1 µg/mL.

**Q.** And the “Minimum Fungicidal Concentration” value (Candida albicans; Candida albicans MY 1208)?
**A.** The value was 2 µg/mL.

**Q.** And the “Minimum Fungicidal Concentration” value (Candida albicans; Candida albicans MY 1585)?
**A.** Its value is 0.25 µg/mL.

**Q.** And the “Minimum Fungicidal Concentration” value (Candida albicans; Candida albicans MY 1750)?
**A.** The value was 0.25 µg/mL.

**Q.** What about the “Minimum Fungicidal Concentration” value (Candida albicans; Candida albicans MY 1783) of the same substance?
**A.** The value was 0.5 µg/mL.

**Q.** And the “stability in aqueous medium” value [1]?
**A.** The value was “exhibit the stability in aqueous medium desired”.

**Q.** What about the “Minimum Fungicidal Concentration” value (Candida tropicalis) of the same substance?
**A.** The value was 1 µg/mL.

**Q.** For “1-[4-hydroxy-N^2 -(10,12-dimethyl-1-oxo-tetradecyl)ornithine]-5-[3-hydroxy-glutamine]echino candin B [Compound Ib]”, which “stability in aqueous medium” value [1] is on record?
**A.** The value was “exhibit the stability in aqueous medium desired”.
